Experiments:
PI3Kα = PI3Kα (Homo sapiens, UniProt P42336); assay: PI3Kα activity determination; format: biochemical; details: 10-dose IC50 determination (n=3), 10 µM ATP
human M1 receptor = molecular target: T1, human M1 receptor (Homo sapiens, UniProt P11229); assay: Cell-based functional M1 agonist assay
T1 sequence (P11229 1-460): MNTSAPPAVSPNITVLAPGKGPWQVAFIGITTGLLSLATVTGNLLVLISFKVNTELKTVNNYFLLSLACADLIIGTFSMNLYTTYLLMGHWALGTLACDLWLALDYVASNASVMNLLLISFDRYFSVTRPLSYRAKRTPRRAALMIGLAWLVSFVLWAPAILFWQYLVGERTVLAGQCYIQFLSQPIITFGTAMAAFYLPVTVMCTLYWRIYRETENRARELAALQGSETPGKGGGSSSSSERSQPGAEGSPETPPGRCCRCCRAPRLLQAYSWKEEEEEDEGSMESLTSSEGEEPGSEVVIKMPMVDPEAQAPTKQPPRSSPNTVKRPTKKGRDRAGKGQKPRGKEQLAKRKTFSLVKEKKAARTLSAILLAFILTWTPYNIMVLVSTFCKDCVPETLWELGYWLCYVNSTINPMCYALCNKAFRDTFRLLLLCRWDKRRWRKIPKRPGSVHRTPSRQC

[1] = Dynamic light scattering aggregation; format: physicochemical; details: aqueous solution with 1 % DMSO

Chain of PI3Kα (P42336 whole entry): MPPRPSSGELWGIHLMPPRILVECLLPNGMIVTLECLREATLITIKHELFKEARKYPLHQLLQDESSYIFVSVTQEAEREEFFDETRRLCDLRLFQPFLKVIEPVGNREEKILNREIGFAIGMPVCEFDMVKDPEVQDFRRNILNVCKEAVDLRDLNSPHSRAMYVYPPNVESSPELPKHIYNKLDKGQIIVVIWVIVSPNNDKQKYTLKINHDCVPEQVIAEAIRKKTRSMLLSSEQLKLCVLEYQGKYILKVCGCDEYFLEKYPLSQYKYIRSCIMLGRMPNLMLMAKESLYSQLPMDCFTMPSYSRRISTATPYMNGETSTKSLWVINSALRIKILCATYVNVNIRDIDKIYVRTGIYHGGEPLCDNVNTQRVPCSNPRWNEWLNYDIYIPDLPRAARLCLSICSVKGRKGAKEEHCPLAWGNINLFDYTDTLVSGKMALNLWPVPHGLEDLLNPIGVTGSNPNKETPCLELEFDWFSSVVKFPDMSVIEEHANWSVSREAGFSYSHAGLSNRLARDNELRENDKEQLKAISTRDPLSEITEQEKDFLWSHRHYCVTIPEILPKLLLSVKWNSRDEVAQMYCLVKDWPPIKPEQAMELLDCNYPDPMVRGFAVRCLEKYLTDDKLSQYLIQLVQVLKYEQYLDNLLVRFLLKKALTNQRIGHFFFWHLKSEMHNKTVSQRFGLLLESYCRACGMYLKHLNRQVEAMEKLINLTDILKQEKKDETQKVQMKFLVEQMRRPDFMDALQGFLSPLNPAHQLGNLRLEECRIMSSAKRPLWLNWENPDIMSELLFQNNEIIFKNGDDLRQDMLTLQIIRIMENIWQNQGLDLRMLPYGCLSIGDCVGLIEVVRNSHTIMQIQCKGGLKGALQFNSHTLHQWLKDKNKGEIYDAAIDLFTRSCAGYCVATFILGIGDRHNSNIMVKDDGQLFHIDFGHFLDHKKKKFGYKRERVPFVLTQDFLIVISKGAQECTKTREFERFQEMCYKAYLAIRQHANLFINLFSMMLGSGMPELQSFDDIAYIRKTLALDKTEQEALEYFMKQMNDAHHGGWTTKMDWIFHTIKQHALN
Chain of PI3Kα (P27986 whole entry partner): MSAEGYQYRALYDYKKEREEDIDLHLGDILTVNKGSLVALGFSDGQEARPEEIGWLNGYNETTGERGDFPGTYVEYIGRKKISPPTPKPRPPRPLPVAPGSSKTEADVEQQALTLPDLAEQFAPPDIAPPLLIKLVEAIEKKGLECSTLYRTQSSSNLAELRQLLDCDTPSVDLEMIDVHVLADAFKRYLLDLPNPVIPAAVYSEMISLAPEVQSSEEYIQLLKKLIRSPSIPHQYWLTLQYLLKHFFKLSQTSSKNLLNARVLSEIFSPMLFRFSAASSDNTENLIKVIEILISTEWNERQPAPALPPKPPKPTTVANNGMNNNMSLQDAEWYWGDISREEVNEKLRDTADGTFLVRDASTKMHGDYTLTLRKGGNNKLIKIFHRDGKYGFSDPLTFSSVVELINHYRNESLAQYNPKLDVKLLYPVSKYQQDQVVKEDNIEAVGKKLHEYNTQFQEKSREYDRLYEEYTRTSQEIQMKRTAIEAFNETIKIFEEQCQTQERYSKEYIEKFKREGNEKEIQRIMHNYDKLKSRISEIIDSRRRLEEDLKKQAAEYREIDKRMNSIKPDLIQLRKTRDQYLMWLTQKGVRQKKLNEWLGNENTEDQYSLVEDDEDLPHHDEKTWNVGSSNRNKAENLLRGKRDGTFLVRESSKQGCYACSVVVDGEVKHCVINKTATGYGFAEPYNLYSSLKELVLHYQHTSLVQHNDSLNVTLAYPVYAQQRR

| IC50 (PI3Kα) [µM] | EC50 (human M1 receptor) [µM] | M1 agonistic activity, % of the effect caused by 100 nM acetylcholine (human M1 receptor; compound concentration of 10 µM) [%] | concentrations at which aggregate particles were observable [1] [µM] | SMILES |
| --- | --- | --- | --- | --- |
| 131 |  |  |  | COC(=O)CNc1c(-c2ccc(OC)cc2OC)nc2ccccn12 [Compound 1, methyl 2-((2-(2,4-dimethoxyphenyl)imidazo[1,2-a]pyridin-3-yl)amino)acetate] |
| 230 ± 30 | ~5 | 34±5 | 15.5 to 250 | COC(=O)c1ccn2c(NCCN3CCOCC3)c(-c3cccn3C)nc2c1 [Compound 2, methyl 2-(1-methyl-1H-pyrrol-2-yl)-3-((2-morpholinoethyl)amino)imidazo[1,2-a] pyridine-7-carboxylate] |
